Measured values as given in patent publication US10793556B2, “8-amino-2-oxo-1,3-diaza-spiro-[4.5]-decane derivatives” (Grünenthal GmbH, priority 2016, dated 2020).

Molecular target: human mu-opioid peptide (hMOP) receptor (Homo sapiens (Human), UniProt P35372)
Assay: hMOP receptor binding assay (SPA, [3H]naloxone)

human mu-opioid peptide (hMOP) receptor, sequence (P35372 whole entry): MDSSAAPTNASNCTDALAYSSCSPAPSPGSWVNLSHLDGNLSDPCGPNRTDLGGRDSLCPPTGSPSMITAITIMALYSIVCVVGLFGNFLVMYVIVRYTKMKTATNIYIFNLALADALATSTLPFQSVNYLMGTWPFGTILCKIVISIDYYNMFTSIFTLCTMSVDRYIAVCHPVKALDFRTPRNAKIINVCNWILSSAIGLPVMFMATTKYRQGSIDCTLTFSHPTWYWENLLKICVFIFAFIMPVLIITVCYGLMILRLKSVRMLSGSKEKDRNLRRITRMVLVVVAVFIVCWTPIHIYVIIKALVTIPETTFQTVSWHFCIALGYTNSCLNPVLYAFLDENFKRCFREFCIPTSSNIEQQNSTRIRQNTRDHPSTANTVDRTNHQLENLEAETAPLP

CN(C)[C@]1(c2ccccc2)CC[C@]2(CC1)CN(CC(C)(C)N1C(=O)CCC1=O)C(=O)N2CC1CC1 [SC_4084, CIS-1-[2-[1-(Cyclopropyl-methyl)-8-dimethylamino-2-oxo-8-phenyl-1,3-diazaspiro[4.5]decan-3-yl]-1,1-dimethyl-ethyl]-pyrrolidine-2,5-dione]
Ki: 2470 nM
